Measurements published in patent publication US20210267944A1 (BioXcel Therapeutics, Inc., priority 2018, published 2021).
Structures can show the parent of a compound that is named as a salt. Where two headings read alike, the source gives them in different places.

Legend:
[1] = human, in vivo
Text: In addition, we assessed the following Secondary Objectives: • a. Determine how rapidly the drug can be administered up to the total dose needed to achieve RASS −1. • b. Determine how long the calming effect persists after discontinuation of study drug administration. • c. Determine whether any adverse effects on blood pressure, heart rate, or respiratory drive occurs before or coincident with the achievement of Primary Objective. Stopping rules for blood pressure and heart rate, indicating a clinically significant event, are: • 1. drop in systolic BP<90 mm of Hg. • 2. drop in diastolic BP<60 mm of Hg • 3. drop below 50 beats per minute
The participants were continuously monitored during the study by the site personnel, including monitoring blood pressure and heart rate. Intermittent electrocardiograms were taken from the start of the infusion through resolution of the sedation and/or any adverse effects on blood pressure or heart rate.
Return to baseline parameters is defined as BP falling within 15 mm of Hg of baseline reading prior to drug administration or HR falling within 10 beats per minute of baseline reading prior to drug administration.

[2] = schizophrenia study, one subject
Procedure: Adverse events (AEs), including serious adverse events (SAEs), were assessed, recorded, and reported in accordance with FDA guidance. Should any SAE occur, the study would be stopped until a cause for the SAE was determined.

[3] = SDAT study
[4] = test system: subjects suffering from opiate withdrawal symptoms;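 note: inpatients in opioid withdrawal given intravenous infusion titrated upward every 30 min (up to 0.1 mcg/kg/hr steps) until COWS total, a clinician-rated 11-item withdrawal scale, fell by half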

Cc1cccc([C@H](C)c2cnc[nH]2)c1C [dexmedetomidine hydrochloride]
Hemodynamic effects [1]: All | adverse effect on blood pressure (systolic and diastolic) and heart rate [1]: no adverse effect | infusion time at which stopping criteria of <60 mm Hg was met [1]: 135 min | AE Term [2]: Headache | AE Outcome ([2]; headache): Recovered | AE Relationship ([2]; headache): Possibly Related | AE Severity ([2]; headache): Moderate | adverse events [3]: No adverse event was reported | COW score ([4]; Day 1, Patient OP-1 (Treatment), 00:00 Hr): 9 | COW score ([4]; Day 1, Patient OP-1 (Treatment), 00:15 Hr): 2 | COW score ([4]; Day 1, Patient OP-1 (Treatment), 30 min. post Infusion): 0 | COW score ([4]; Day 1, Patient OP-2 (Treatment), 00:00 Hr): 15 | COW score ([4]; Day 1, Patient OP-2 (Treatment), 00:15 Hr): 11 | COW score ([4]; Day 1, Patient OP-2 (Treatment), 00:30 Hr): 9 | COW score ([4]; Day 1, Patient OP-2 (Treatment), 00:45 Hr): 12 | COW score ([4]; Day 1, Patient OP-2 (Treatment), 01:00 Hr): 2 | COW score ([4]; Day 1, Patient OP-2 (Treatment), 30 min. post Infusion): 16 | COW score ([4]; Day 1, Patient OP-3 (Treatment), 00:00 Hr): 13 | COW score ([4]; Day 1, Patient OP-3 (Treatment), 00:15 Hr): 8 | COW score ([4]; Day 1, Patient OP-3 (Treatment), 00:30 Hr): 8 | COW score ([4]; Day 1, Patient OP-3 (Treatment), 00:45 Hr): 4 | COW score ([4]; Day 1, Patient OP-3 (Treatment), 30 min. post Infusion): 3 | COW score ([4]; Day 1, Patient OP-6 (Treatment), 00:00 Hr): 11 | COW score ([4]; Day 1, Patient OP-6 (Treatment), 00:15 Hr): 7 | COW score ([4]; Day 1, Patient OP-6 (Treatment), 00:30 Hr): 2 | COW score ([4]; Day 1, Patient OP-6 (Treatment), 30 min. post Infusion): 2 | COW score ([4]; Day 1, Patient OP-7 (Treatment), 00:00 Hr): 10 | COW score ([4]; Day 1, Patient OP-7 (Treatment), 00:15 Hr): 8 | COW score ([4]; Day 1, Patient OP-7 (Treatment), 30 min. post Infusion): 0 | COW score ([4]; Day 1, Patient OP-9 (Treatment), 00:00 Hr): 16 | COW score ([4]; Day 1, Patient OP-9 (Treatment), 00:15 Hr): 13 | COW score ([4]; Day 1, Patient OP-9 (Treatment), 00:30 Hr): 10 | COW score ([4]; Day 1, Patient OP-9 (Treatment), 00:45 Hr): 9 | COW score ([4]; Day 1, Patient OP-9 (Treatment), 01:00 Hr): 10 | COW score ([4]; Day 1, Patient OP-9 (Treatment), 01:15 Hr): 6 | COW score ([4]; Day 1, Patient OP-9 (Treatment), 30 min. post Infusion): 9 | COW score ([4]; Day 1, Patient OP-10 (Treatment), 00:00 Hr): 10 | COW score ([4]; Day 1, Patient OP-10 (Treatment), 00:15 Hr): 7 | COW score ([4]; Day 1, Patient OP-10 (Treatment), 00:30 Hr): 1 | COW score ([4]; Day 1, Patient OP-10 (Treatment), 30 min. post Infusion): 3 | COW score ([4]; Day 1, Patient OP-11 (Treatment), 00:00 Hr): 16 | COW score ([4]; Day 1, Patient OP-11 (Treatment), 00:15 Hr): 16 | COW score ([4]; Day 1, Patient OP-11 (Treatment), 00:45 Hr): 13 | COW score ([4]; Day 1, Patient OP-11 (Treatment), 01:00 Hr): 14 | COW score ([4]; Day 1, Patient OP-11 (Treatment), 01:15 Hr): 10 | COW score ([4]; Day 1, Patient OP-11 (Treatment), 01:30 Hr): 8 | COW score ([4]; Day 1, Patient OP-11 (Treatment), 30 min. post Infusion): 8 | COW score ([4]; Day 1, Patient OP-12 (Treatment), 00:00 Hr): 16 | COW score ([4]; Day 1, Patient OP-12 (Treatment), 00:15 Hr): 12 | COW score ([4]; Day 1, Patient OP-12 (Treatment), 00:30 Hr): 9 | COW score ([4]; Day 1, Patient OP-12 (Treatment), 00:45 Hr): 9 | COW score ([4]; Day 1, Patient OP-12 (Treatment), 01:00 Hr): 10 | COW score ([4]; Day 1, Patient OP-12 (Treatment), 01:15 Hr): 9 | COW score ([4]; Day 1, Patient OP-12 (Treatment), 01:30 Hr): 4 | COW score ([4]; Day 1, Patient OP-12 (Treatment), 30 min. post Infusion): 5 | COW score ([4]; Day 1, Patient OP-15 (Treatment), 00:00 Hr): 13 | COW score ([4]; Day 1, Patient OP-15 (Treatment), 00:15 Hr): 8 | COW score ([4]; Day 1, Patient OP-15 (Treatment), 00:30 Hr): 4 | COW score ([4]; Day 1, Patient OP-15 (Treatment), 30 min. post Infusion): 4 | COW score ([4]; Day 1, Patient OP-17 (Treatment), 00:00 Hr): 10 | COW score ([4]; Day 1, Patient OP-17 (Treatment), 00:15 Hr): 11 | COW score ([4]; Day 1, Patient OP-17 (Treatment), 00:30 Hr): 9 | COW score ([4]; Day 1, Patient OP-17 (Treatment), 00:45 Hr): 8 | COW score ([4]; Day 1, Patient OP-17 (Treatment), 01:00 Hr): 4 | COW score ([4]; Day 1, Patient OP-17 (Treatment), 30 min. post Infusion): 5 | COW score ([4]; Day 2, Patient OP-1 (Treatment), 00:00 Hr): 9 | COW score ([4]; Day 2, Patient OP-1 (Treatment), 00:15 Hr): 8
